The record followed here is ChEMBL document CHEMBL1155729, “Hydrachine A, a novel alkaloid from the roots of Hydrangea chinensis” (J Nat Prod, 2001).

Each structure is given as a SMILES string. Active and inactive are the calls of the source. The rule behind the calls is not given here.

One assay relates to NUGC. The assay is described as follows: Cytotoxicity against human NUGC cells. It counts as functional, cell-based.
The next assay has as its system HONE1. The experiment in a line: Cytotoxicity against human HONE1 cells. It counts as functional, cell-based.

With `CC1(C)[C@@H](n2cnc3ccccc3c2=O)C(=O)C[C@@H]2[C@@H](O)CCCN21`, the result in the assay with NUGC and with HONE1 was inactive.

As for `O=C(C[C@@H]1NCCC[C@H]1O)Cn1cnc2ccccc2c1=O`, the result in the assay on NUGC and with HONE1 was inactive.

As to `O=C1C[C@@H]2[C@@H](O)CCCN2[C@H](n2cnc3ccccc3c2=O)C1`, the outcome with NUGC and in the assay with HONE1 was inactive.
